The source made the active and inactive calls. The rule behind the calls is not given here.
Tests used:
A549 = test: Antiproliferative activity against human A549 cells assessed as inhibition rate incubated for 72 hrs by MTT assay; assay type: functional, cell-based; details: A549, 72 h
MDA-MB-231 [1] = test: Antiproliferative activity against human MDA-MB-231 cells assessed as inhibition rate at 1 uM incubated for 72 hrs by MTT assay; assay type: functional
MDA-MB-435 = test: Antiproliferative activity against human MDA-MB-435 cells assessed as inhibition rate incubated for 72 hrs by MTT assay; assay type: functional, cell-based; details: MDA-MB-435, 72 h
[2] = Selectivity index, ratio of IC50 for human MCF-10A cells to IC50 for human MDA-MB-231 cells
MCF-10A = test: cells; assay type: ADME, cell-based; details: Homo sapiens, 72 h
Description: Antiproliferative activity against human MCF-10A cells assessed as inhibition rate incubated for 72 hrs by MTT assay

HCT-116 = test: Antiproliferative activity against human HCT-116 cells assessed as inhibition rate incubated for 72 hrs by MTT assay; assay type: functional, cell-based; details: HCT-116, 72 h
HEK293 = test: cells; assay type: ADME, cell-based; details: Homo sapiens, HEK293, 72 h
Description: Antiproliferative activity against HEK293 cells assessed as inhibition rate incubated for 72 hrs by MTT assay

MDA-MB-231 [3] = test: Antiproliferative activity against human MDA-MB-231 cells assessed as inhibition rate at 10 uM incubated for 72 hrs by MTT assay; assay type: functional
MDA-MB-231 [4] = test: Antiproliferative activity against human MDA-MB-231 cells assessed as inhibition rate incubated for 72 hrs by MTT assay; assay type: functional, cell-based; details: MDA-MB-231, 72 h
MDA-MB-231 [5] = test: Antiproliferative activity against human MDA-MB-231 cells assessed as inhibition rate at 100 uM incubated for 72 hrs by MTT assay; assay type: functional
[6] = target: T1, DNA topoisomerase 1 (Homo sapiens) (UniProt P11387); test: Inhibition of topoisomerase 1 (unknown origin) assessed as relaxation of supercoiled plasmid pBR322 DNA upto 500 uM incubated for 15 mins by agarose gel electrophoresis; details: dose microM <=500, time 15.0 min
T1 sequence (whole entry): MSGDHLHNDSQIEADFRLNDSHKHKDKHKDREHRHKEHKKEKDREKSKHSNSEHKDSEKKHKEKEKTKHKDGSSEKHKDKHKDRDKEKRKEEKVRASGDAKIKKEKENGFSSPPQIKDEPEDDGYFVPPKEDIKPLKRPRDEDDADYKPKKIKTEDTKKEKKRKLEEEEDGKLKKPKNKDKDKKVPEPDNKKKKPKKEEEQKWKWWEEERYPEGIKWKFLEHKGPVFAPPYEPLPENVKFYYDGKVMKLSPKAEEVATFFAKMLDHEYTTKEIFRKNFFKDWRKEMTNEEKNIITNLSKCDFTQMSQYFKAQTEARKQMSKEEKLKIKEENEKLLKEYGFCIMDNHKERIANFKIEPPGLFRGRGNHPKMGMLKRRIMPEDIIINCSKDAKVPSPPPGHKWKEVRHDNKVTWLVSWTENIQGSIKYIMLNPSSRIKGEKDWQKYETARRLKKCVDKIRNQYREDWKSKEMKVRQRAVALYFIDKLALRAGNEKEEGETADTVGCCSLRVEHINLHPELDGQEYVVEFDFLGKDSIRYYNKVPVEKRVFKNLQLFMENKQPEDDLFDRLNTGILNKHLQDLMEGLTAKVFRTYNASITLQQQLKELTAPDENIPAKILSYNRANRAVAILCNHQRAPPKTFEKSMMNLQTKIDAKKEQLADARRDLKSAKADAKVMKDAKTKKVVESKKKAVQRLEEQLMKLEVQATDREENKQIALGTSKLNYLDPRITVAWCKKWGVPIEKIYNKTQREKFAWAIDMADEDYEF

MDA-MB-231 [7] = test: Antiproliferative activity against human MDA-MB-231 cells transfected with siRNA-Top1 assessed as cell viability by MTT assay; assay type: functional, cell-based
HepG2 = test: Antiproliferative activity against human HepG2 cells assessed as inhibition rate incubated for 72 hrs by MTT assay; assay type: functional, cell-based; details: HepG2, 72 h
H22 = test: Antiproliferative activity against mouse H22 cells assessed as inhibition rate incubated for 72 hrs by MTT assay; assay type: functional, cell-based; details: H22, 72 h
LoVo = test: Antiproliferative activity against human LoVo cells assessed as inhibition rate incubated for 72 hrs by MTT assay; assay type: functional, cell-based
MCF7 = test: Antiproliferative activity against human MCF7 cells assessed as inhibition rate incubated for 72 hrs by MTT assay; assay type: functional, cell-based; details: MCF7, 72 h
MDA-MB-231 [8] = test: Antiproliferative activity against human MDA-MB-231 cells transfected with siRNA-Ctrl assessed as cell viability by MTT assay; assay type: functional, cell-based
[9] = Ratio of IC50 for antiproliferative activity against human MDA-MB-231 cells transfected with siRNA-Top1 to IC50 for antiproliferative activity against human MDA-MB-231 cells transfected with siRNA-Ctrl assessed as cell viability by MTT assay; assay type: functional
4T1 = test: Antiproliferative activity against mouse 4T1 cells assessed as inhibition rate incubated for 72 hrs by MTT assay; assay type: functional, cell-based; details: 4T1, 72 h
[10] = target: T1, DNA topoisomerase 1 (Homo sapiens); test: Induction of topoisomerase 1-DNA cleavable complex in human MDA-MB-231 cells assessed as increase in cleavable complex by measuring SDS-K+ precipitable complex at 15 uM measured up to 15 hrs by liquid scintillation counting analysis; assay type: cell-based; details: time hrs <=15

Row | Compound | IC50 (A549) [µM] | inhibition at 1 µM (MDA-MB-231 [1]) [%] | IC50 (MDA-MB-435) [µM] | IC50 (HCT-116) [µM] | inhibition at 10 µM (MDA-MB-231 [3]) [%] | IC50 (MDA-MB-231 [4]) [µM] | inhibition at 100 µM (MDA-MB-231 [5]) [%] | other results
1 | CN1c2ccccc2C(=O)N2CCc3c([nH]c4ccccc34)C21 (centres undefined) | 77.2 | 38.9 | 6.3 | 32.7 | 53.3 | 13.3 | 73.3 | selectivity ratio ([2]; MCF-10A cells versus MDA-MB-231 cells): > 10.7; IC50 (MCF-10A): > 100 µM; IC50 (HEK293): > 100 µM
2 | O=C1c2ccccc2OC2c3oc4ccc(O)cc4c3CCN12 (centres undefined) | 4.28 | 55.1 | 0.47 | 1.26 | 61.2 | 0.86 | 96.5 | Activity [6]: inactive
3 | COc1ccc2oc3c(c2c1)CCN1C(=O)c2cc(Br)ccc2OC31 (centres undefined) |  | 6.8 |  |  | 9.2 |  | 13 | 
4 | Cc1cccc2c1OC1c3oc4ccc(O)cc4c3CCN1C2=O (centres undefined) | 6.79 | 60.6 | 1.95 | 3.45 | 66.5 | 2.52 | 97.4 | Activity [6]: inactive
5 | CN1c2ccccc2C(=O)N2Cc3cc4cc(O)ccc4nc3C21 (centres undefined) |  | 6.3 |  |  | 19.8 |  | 89.9 | 
6 | CC[C@@]1(O)C(=O)OCc2c1cc1n(c2=O)Cc2cc3ccccc3nc2-1 [CAMPTOTHECIN] | 0.1 |  | 0.31 |  |  | 0.42 |  | IC50 (MDA-MB-231 [7]): > 6.4 µM; IC50 (HepG2): 0.11 µM; IC50 (H22): 0.54 µM; selectivity ratio [2]: 5.2; IC50 (MCF-10A): 2.19 µM; IC50 (LoVo): 1.54 µM; IC50 (MCF7): 0.56 µM; IC50 (MDA-MB-231 [8]): 0.264 µM; Ratio IC50 [9]: 24; IC50 (4T1): 0.17 µM; Activity [10]: Active
7 | COc1ccc2oc3c(c2c1)CCN1C(=O)c2ccccc2OC31 (centres undefined) |  | 6 |  |  | 10.6 |  | 36.6 | 
8 | Cc1ccc2c(c1)OC1c3oc4ccc(O)cc4c3CCN1C2=O (centres undefined) | 10.5 | 62.7 | 1.14 | 4.71 | 64.8 | 1.05 | 94 | Activity [6]: inactive
9 | COc1ccc2oc3c(c2c1)CCN1C(=O)c2cc(Cl)cc(Cl)c2OC31 (centres undefined) |  | 8.6 |  |  | 5.5 |  | 12.1 | 
10 | COc1ccc2nc3c(cc2c1)CN1C(=O)c2ccccc2N(C)C31 (centres undefined) |  | 7.6 |  |  | 11.9 |  | 80.7 | 
11 | O=C(O)c1ccc2[nH]c3c(c2c1)CCN1C(=O)c2ccccc2OC31 (centres undefined) |  | 9.7 |  |  | 11.2 |  | 39.6 | 
12 | COc1ccc2oc3c(c2c1)CCN1C(=O)c2cc(Cl)ccc2OC31 (centres undefined) |  | 2.3 |  |  | 7.3 |  | 15.9 | 
13 | O=C1c2cc(Cl)cc(Cl)c2OC2c3oc4ccc(O)cc4c3CCN12 (centres undefined) | 7.58 | 32.7 | 2.33 | 6.09 | 59.5 | 3.73 | 96.9 | Activity [6]: inactive
14 | COc1ccc2oc3c(c2c1)CCN1C(=O)c2ccc(C)cc2OC31 (centres undefined) |  | 7.5 |  |  | 19.2 |  | 41.5 | 
15 | O=C1c2cc(Br)ccc2OC2c3oc4ccc(O)cc4c3CCN12 (centres undefined) | 4.14 | 75.7 | 0.81 | 1.71 | 83.1 | 1.16 | 94.5 | Activity [6]: inactive
16 | COC(=O)c1ccc2[nH]c3c(c2c1)CCN1C(=O)c2ccccc2OC31 (centres undefined) |  | 12.6 |  |  | 15.7 |  | 45.2 | 
17 | COc1ccc2oc3c(c2c1)CCN1C(=O)c2cccc(C)c2OC31 (centres undefined) |  | 7.1 |  |  | 11.9 |  | 15 | 

— ChEMBL document CHEMBL5029185, “Discovery of Novel Polycyclic Heterocyclic Derivatives from Evodiamine for the Potential Treatment of Triple-Negative Breast Cancer” (J Med Chem, 2021)
